Results: ChEMBL document CHEMBL1614632, “Trend analysis of a database of intravenous pharmacokinetic parameters in humans for 670 drug compounds” (Drug Metab Dispos, 2008)

How the values were obtained:
[1] = clinical; settings: human, in vivo, iv, Vdss
[2] = clinical; settings: human, in vivo, iv, CL
[3] = clinical; settings: human, in vivo, iv
[4] = clinical; settings: human, in vivo, iv; remark: listed apart in the source
[5] = clinical; settings: human, in vivo, iv, t1/2

Row | Compound | Vd [1] | clearance [2] | fraction unbound [3] | MRT [4] | half-life [5]
1 | CN(C)c1cc(NC(=O)CNC(C)(C)C)c(O)c2c1C[C@H]1C[C@H]3[C@H](N(C)C)C(O)=C(C(N)=O)C(=O)[C@@]3(O)C(O)=C1C2=O [TIGECYCLINE] | 12 L/kg | 3.8 mL/min/kg | 0.2 | 53 h | 48 h
2 | Cc1nnc2n1-c1sc(Br)cc1C(c1ccccc1Cl)=NC2 [BROTIZOLAM] | 0.75 L/kg | 2 mL/min/kg | 0.092 | 6 h | 4.8 h
3 | CCOC(=O)[C@@H]1C2CCC(C[C@@H]1OC(=O)c1ccccc1)N2C (stereo not given in full) [COCAETHYLENE] | 1.6 L/kg | 13 mL/min/kg | 0.64 | 2 h | 1.5 h
4 | Cc1cccc([C@H](C)c2cnc[nH]2)c1C [DEXMEDETOMIDINE] | 1.6 L/kg | 11 mL/min/kg | 0.06 | 2.5 h | 2.2 h
5 | CC(=O)OCC1=C(C(=O)O)N2C(=O)[C@@H](NC(=O)CSc3ccncc3)[C@H]2SC1 [CEPHAPIRIN] | 0.13 L/kg | 2.7 mL/min/kg | 0.55 | 0.8 h | 1.2 h
6 | Cc1cccc(C)c1OCC(C)N (stereo not given) [MEXILETINE] | 5.9 L/kg | 8.3 mL/min/kg | 0.36 | 12 h | 9.9 h
7 | O=NN(CCCl)C(=O)NCCCl [CARMUSTINE] | 1.2 L/kg | 78 mL/min/kg | 0.23 | 0.26 h | 0.37 h
8 | COc1cc([C@@H]2c3cc4c(cc3C(OC3OC5COC(C)OC5C(O)C3N)C3COC(=O)[C@@H]32)OCO4)cc(OC)c1O (stereo not given in full) [NK-611] | 0.3 L/kg | 0.4 mL/min/kg | 0.013 | 17 h | 14 h
9 | COc1ccc2cc1Oc1cc3c(cc1OC)CC[N+](C)(C)[C@H]3Cc1ccc(cc1)Oc1c(OC)c(OC)cc3c1[C@@H](C2)[N+](C)(C)CC3.[I-].[I-] [METOCURINE IODIDE] | 0.4 L/kg | 1.2 mL/min/kg | 0.65 | 5.6 h | 5.1 h
10 | CN(C)CCCN1c2ccccc2Sc2ccccc21 [PROMAZINE] | 8.1 L/kg | 14 mL/min/kg | 0.11 | 9.6 h | 7.9 h
11 | C[C@H](Cn1cnc2c(N)ncnc21)OCP(=O)(O)O [TENOFOVIR ANHYDROUS] | 0.83 L/kg | 3.1 mL/min/kg | 0.93 | 3.8 h | 5.8 h
12 | CC(NCCc1ccc(O)cc1)C(O)c1ccc(O)cc1 (stereo not given) [RITODRINE] | 4.4 L/kg | 31 mL/min/kg | 0.64 | 2.4 h | 2.6 h
13 | CC1(C)S[C@@H]2[C@H](NC(=O)Cc3ccccc3)C(=O)N2[C@H]1C(=O)O [PENICILLIN G] | 0.24 L/kg | 6.9 mL/min/kg | 0.4 | 0.58 h | 0.7 h
14 | CCN(CCO)CCCC(C)Nc1ccnc2cc(Cl)ccc12 (stereo not given) [HYDROXYCHLOROQUINE] | 700 L/kg | 11 mL/min/kg | 0.57 | 1300 h | 850 h
15 | COc1ccc(C[C@@H]2c3cc(OC)c(OC)cc3CC[N@+]2(C)CCC(=O)OCCCCCOC(=O)CC[N@@+]2(C)CCc3cc(OC)c(OC)cc3[C@H]2Cc2ccc(OC)c(OC)c2)cc1OC | 0.14 L/kg | 5.4 mL/min/kg | 0.62 | 0.43 h | 0.42 h
16 | CC[C@H]1OC(=O)[C@H](C)C(=O)[C@H](C)[C@@H](O[C@@H]2O[C@H](C)C[C@H](N(C)C)[C@H]2O)[C@](C)(OC)C[C@@H](C)C(=O)[C@H](C)[C@H]2N(CCCCn3cnc(-c4cccnc4)c3)C(=O)O[C@]12C [TELITHROMYCIN] | 3 L/kg | 14 mL/min/kg | 0.41 | 3.6 h | 12 h
17 | CO/N=C(\C(=O)N[C@@H]1C(=O)N2C(C(=O)O)=C(COC(N)=O)CS[C@H]12)c1ccco1 [CEFUROXIME] | 0.15 L/kg | 2.2 mL/min/kg | 0.12 | 1.1 h | 1.1 h
18 | CO/N=C(\C(=O)N[C@@H]1C(=O)N2C(C(=O)O)=C(COC(C)=O)CS[C@H]12)c1csc(N)n1 [CEFOTAXIME] | 0.19 L/kg | 2.7 mL/min/kg | 0.6 | 1.2 h | 1.2 h
19 | Cc1ncsc1CCCl [CLOMETHIAZOLE] | 6.6 L/kg | 33 mL/min/kg | 0.36 | 3.3 h | 4.5 h
20 | Oc1ccc2c(c1)[C@@]13CCCC[C@@]1(O)[C@@H](C2)N(CC1CCC1)CC3 [BUTORPHANOL] | 12 L/kg | 41 mL/min/kg | 0.17 | 5.3 h | 4.8 h
21 | CCC(=O)O[C@](Cc1ccccc1)(c1ccccc1)[C@H](C)CN(C)C [PROPOXYPHENE] | 12 L/kg | 15 mL/min/kg | 0.24 | 13.3 h | 18 h
22 | CCCCC/C=C\CCC(=O)N[C@H]1[C@H](Oc2c3cc4cc2Oc2ccc(cc2Cl)[C@@H](O[C@@H]2O[C@H](CO)[C@@H](O)[C@H](O)[C@H]2NC(C)=O)[C@@H]2NC(=O)[C@H](NC(=O)[C@@H]4NC(=O)[C@H]4NC(=O)[C@@H](Cc5ccc(c(Cl)c5)O3)NC(=O)[C@H](N)c3ccc(O)c(c3)Oc3cc(O)cc4c3)c3ccc(O)c(c3)-c3c(O[C@H]4O[C@H](CO)[C@@H](O)[C@H](O)[C@@H]4O)cc(O)cc3[C@@H](C(=O)O)NC2=O)O[C@H](CO)[C@@H](O)[C@@H]1O [TEICOPLANIN A2-1] | 1.5 L/kg | 0.2 mL/min/kg | 0.11 | 140 h | 150 h
23 | COc1ccc(CCNCC(O)COc2cccc(C)c2)cc1OC (stereo not given) [BEVANTOLOL] | 0.67 L/kg | 5.5 mL/min/kg | 0.015 | 2 h | 1.9 h
24 | COc1cc([C@@H]2c3cc4c(cc3[C@@H](O[C@@H]3O[C@@H]5CO[C@@H](c6cccs6)O[C@H]5[C@H](O)[C@H]3O)[C@H]3COC(=O)[C@H]23)OCO4)cc(OC)c1O [TENIPOSIDE] | 0.41 L/kg | 0.19 mL/min/kg | 0.0044 | 37 h | 16 h
25 | OCCN1CCN(CCCN2c3ccccc3Sc3ccc(Cl)cc32)CC1 [PERPHENAZINE] | 18 L/kg | 27 mL/min/kg | 0.07 | 11 h | 9.4 h
26 | CO/N=C(\C(=O)N[C@@H]1C(=O)N2C(C(=O)O)=CCS[C@H]12)c1csc(N)n1 [CEFTIZOXIME] | 0.2 L/kg | 2.1 mL/min/kg | 0.72 | 1.6 h | 1.5 h
27 | CN1CCN(CCCCN2C(=O)CN(/N=C/c3ccc(-c4ccc(Cl)cc4)o3)C2=O)CC1 [AZIMILIDE] | 13 L/kg | 2.4 mL/min/kg | 0.06 | 100 h | 79 h
28 | CNCCCC12CCC(c3ccccc31)c1ccccc12 [MAPROTILINE] | 45 L/kg | 14 mL/min/kg | 0.11 | 54 h | 51 h
